We go through 3 compounds from ChEMBL document CHEMBL5154811, “Discovery of SPH5030, a Selective, Potent, and Irreversible Tyrosine Kinase Inhibitor for HER2-Amplified and HER2-Mutant Cancer Treatment” (J Med Chem, 2022).

Test [1] has as its system BT-474. Nature of the test: Antitumor activity against human BT-474 cells xenografted in BALB/c nude mouse assessed as tumor growth inhibition at 20 mg/kg/day, po administered once daily for 21 days relative to control. The format is functional. The note with it: BT-474, 504 h, time 21 day, read-out: TGI.
The test system of a further test is MDA-MB-468. The experiment in a line: Antiproliferative activity against human MDA-MB-468 cells overexpressing wild type EGFR assessed as cell growth inhibition incubated for 72 hrs by Celltiter-Glo assay. The following applies: MDA-MB-468, 72 h. The format is functional, cell-based.
In a further test the test system is COLO-678. The experiment in a line: Antiproliferative activity against human COLO-678 cells assessed as cell growth inhibition incubated for 72 hrs by Celltiter-Glo assay. It counts as functional, cell-based. The note with it: COLO-678, 72 h.
The nature of test [2]: Antiproliferative activity against human KM12-Luc cells assessed as cell growth inhibition incubated for 72 hrs by Celltiter-Glo assay. The format is functional, cell-based.
Another test has as its system NUGC-4. The experiment in a line: Antiproliferative activity against human NUGC-4 cells assessed as cell growth inhibition incubated for 72 hrs by Celltiter-Glo assay. It counts as functional, cell-based. The note with it: NUGC-4, 72 h.
In another test the test system is ES-2. Nature of the test: Antiproliferative activity against human ES2 cells assessed as cell growth inhibition incubated for 72 hrs by Celltiter-Glo assay. It counts as functional, cell-based. The note with it: ES-2, 72 h.
The next test relates to MFE-280. The experiment in a line: Antiproliferative activity against human MFE-280 cells assessed as cell growth inhibition incubated for 72 hrs by Celltiter-Glo assay. The following applies: MFE-280, 72 h. The format is functional, cell-based.
The next test relates to SK-BR-3. Nature of the test: Antiproliferative activity against human SK-BR-3 cells overexpressing wild type HER2 assessed as cell growth inhibition incubated for 72 hrs by Celltiter-Glo assay. The format is functional, cell-based. The following applies: SK-BR-3, 72 h.
Test [3] has as its system NCI-N87. The experiment in a line: Antitumor activity against human NCI-N87 cells xenografted in BALB/c nude mouse assessed as tumor growth inhibition at 20 mg/kg/day, po administered once daily for 21 days relative to control. The format is functional. The following applies: NCI-N87, 504 h, time 21 day, read-out: TGI.
Test [4] concerns NCI-N87. The experiment in a line: Antiproliferative activity against human NCI-N87 cells assessed as inhibition of cell growth incubated for 72 hrs by Celltiter-Glo assay. The format is functional, cell-based. The following applies: NCI-N87, 72 h.
Test [5] relates to BT-474. Nature of the test: Antiproliferative activity against human BT-474 cells assessed as inhibition of cell growth incubated for 72 hrs by Celltiter-Glo assay. The format is functional, cell-based. The following applies: BT-474, 72 h.
The subject of test [6] is BaF3. Nature of the test: Antitumor activity against mouse BaF3 cells harbouring HER2 A775_G776insYVMA mutant xenografted in BALB/c nude mouse assessed as tumor growth inhibition at 20 mg/kg, po qd measured for 13 days relative to control. The format is functional. The following applies: BaF3, 312 h, time 13 day, read-out: TGI.
Another test has as its system NCI-H441. The experiment in a line: Antiproliferative activity against human NCI-H441 cells assessed as cell growth inhibition incubated for 72 hrs by Celltiter-Glo assay. The format is functional, cell-based. The following applies: NCI-H441, 72 h.
For test [7], the target named is Receptor tyrosine-protein kinase erbB-2 (Homo sapiens, UniProt P04626, R896C). Nature of the test: Inhibition of HER2 R896C mutant (unknown origin) incubated for 120 mins in presence of 33P-ATP by P81 ion exchange cellulose chromatography.
The test system of test [8] is BaF3. Nature of the test: Antiproliferative activity against mouse BaF3 cells harbouring HER2 […] mutant assessed as inhibition of cell growth incubated for 72 hrs by Celltiter-Glo assay. The format is functional, cell-based. The note with it: BaF3, 72 h.
In test [9] the target is Receptor tyrosine-protein kinase erbB-2 (Homo sapiens, UniProt P04626, D769H). Nature of the test: Inhibition of HER2 D769H mutant (unknown origin) incubated for 120 mins in presence of 33P-ATP by P81 ion exchange cellulose chromatography.
Receptor tyrosine-protein kinase erbB-2 (Homo sapiens, UniProt P04626, D769H), sequence (P04626 23-1255 D769H limits assumed): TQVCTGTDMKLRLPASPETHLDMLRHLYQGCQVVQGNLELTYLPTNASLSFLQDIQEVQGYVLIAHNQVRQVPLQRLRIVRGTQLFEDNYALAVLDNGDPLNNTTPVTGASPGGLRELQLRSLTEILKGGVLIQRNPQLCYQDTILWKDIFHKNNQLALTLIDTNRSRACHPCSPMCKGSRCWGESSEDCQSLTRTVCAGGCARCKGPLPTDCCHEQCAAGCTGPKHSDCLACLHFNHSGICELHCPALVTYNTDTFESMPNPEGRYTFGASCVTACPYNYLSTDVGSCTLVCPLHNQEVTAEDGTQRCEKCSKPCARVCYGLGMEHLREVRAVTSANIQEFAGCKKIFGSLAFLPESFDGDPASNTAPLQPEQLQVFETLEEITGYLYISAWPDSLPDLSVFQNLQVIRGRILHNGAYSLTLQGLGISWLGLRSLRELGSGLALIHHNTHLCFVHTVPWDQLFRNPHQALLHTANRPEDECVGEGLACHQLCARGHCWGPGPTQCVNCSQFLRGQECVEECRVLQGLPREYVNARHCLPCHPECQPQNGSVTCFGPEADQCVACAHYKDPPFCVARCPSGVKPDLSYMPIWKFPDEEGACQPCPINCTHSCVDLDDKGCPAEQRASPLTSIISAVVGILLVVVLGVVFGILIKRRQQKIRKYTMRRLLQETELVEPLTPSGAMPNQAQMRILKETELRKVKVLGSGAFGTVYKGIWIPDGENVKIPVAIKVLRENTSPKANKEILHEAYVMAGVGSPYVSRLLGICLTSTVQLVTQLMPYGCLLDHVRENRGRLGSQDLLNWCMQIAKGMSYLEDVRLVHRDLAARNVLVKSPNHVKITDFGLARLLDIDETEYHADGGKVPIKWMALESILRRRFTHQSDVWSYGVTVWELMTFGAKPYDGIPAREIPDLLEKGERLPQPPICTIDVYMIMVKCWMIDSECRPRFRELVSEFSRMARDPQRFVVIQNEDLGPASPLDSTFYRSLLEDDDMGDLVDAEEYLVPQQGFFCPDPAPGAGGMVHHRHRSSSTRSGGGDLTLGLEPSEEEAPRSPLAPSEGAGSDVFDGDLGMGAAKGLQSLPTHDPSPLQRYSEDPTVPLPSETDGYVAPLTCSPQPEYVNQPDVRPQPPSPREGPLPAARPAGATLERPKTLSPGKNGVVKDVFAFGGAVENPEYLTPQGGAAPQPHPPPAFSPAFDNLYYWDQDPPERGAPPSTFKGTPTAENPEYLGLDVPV
For test [10], the target named is T1, Receptor tyrosine-protein kinase erbB-2 (Homo sapiens, UniProt P04626). The experiment in a line: Inhibition of HER2 (unknown origin).
T1 sequence (P04626 whole entry): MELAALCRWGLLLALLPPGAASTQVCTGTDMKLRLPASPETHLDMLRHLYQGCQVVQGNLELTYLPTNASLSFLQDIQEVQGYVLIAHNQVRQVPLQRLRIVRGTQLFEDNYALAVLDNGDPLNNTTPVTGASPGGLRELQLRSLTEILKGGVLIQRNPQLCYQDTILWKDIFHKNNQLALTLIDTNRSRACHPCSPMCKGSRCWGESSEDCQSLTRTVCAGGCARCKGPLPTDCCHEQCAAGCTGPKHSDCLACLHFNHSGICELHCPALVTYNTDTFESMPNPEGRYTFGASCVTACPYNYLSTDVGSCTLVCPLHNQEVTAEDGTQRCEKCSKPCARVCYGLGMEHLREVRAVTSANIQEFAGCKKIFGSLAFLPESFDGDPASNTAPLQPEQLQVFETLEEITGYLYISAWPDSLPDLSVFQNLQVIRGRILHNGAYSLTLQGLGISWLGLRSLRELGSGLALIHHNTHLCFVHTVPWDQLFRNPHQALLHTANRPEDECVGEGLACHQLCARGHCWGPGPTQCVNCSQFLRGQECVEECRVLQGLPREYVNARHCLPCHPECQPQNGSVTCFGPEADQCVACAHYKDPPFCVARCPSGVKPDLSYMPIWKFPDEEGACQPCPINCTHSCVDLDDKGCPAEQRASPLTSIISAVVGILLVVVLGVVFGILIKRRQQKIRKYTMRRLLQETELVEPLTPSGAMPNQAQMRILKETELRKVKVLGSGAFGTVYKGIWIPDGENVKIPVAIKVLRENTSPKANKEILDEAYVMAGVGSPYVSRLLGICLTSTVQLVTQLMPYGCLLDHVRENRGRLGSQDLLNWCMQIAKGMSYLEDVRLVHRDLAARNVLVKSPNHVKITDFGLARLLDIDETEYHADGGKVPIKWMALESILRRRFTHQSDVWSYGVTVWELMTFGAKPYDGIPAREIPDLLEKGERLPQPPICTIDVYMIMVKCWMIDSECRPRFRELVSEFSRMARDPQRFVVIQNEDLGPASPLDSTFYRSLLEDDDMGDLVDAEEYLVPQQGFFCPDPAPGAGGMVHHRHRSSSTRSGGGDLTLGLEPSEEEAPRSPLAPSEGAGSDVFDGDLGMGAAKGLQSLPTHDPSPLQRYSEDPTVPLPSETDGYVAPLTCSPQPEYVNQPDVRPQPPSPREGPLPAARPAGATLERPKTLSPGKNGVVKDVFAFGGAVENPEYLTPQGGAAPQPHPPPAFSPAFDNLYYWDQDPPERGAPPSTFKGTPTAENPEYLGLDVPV
The target of test [11] is Receptor tyrosine-protein kinase erbB-2 (Homo sapiens, UniProt P04626, V777L). Nature of the test: Inhibition of HER2 V777L mutant (unknown origin) incubated for 120 mins in presence of 33P-ATP by P81 ion exchange cellulose chromatography.
Receptor tyrosine-protein kinase erbB-2 (Homo sapiens, UniProt P04626, V777L), sequence (P04626 23-1255 V777L limits assumed): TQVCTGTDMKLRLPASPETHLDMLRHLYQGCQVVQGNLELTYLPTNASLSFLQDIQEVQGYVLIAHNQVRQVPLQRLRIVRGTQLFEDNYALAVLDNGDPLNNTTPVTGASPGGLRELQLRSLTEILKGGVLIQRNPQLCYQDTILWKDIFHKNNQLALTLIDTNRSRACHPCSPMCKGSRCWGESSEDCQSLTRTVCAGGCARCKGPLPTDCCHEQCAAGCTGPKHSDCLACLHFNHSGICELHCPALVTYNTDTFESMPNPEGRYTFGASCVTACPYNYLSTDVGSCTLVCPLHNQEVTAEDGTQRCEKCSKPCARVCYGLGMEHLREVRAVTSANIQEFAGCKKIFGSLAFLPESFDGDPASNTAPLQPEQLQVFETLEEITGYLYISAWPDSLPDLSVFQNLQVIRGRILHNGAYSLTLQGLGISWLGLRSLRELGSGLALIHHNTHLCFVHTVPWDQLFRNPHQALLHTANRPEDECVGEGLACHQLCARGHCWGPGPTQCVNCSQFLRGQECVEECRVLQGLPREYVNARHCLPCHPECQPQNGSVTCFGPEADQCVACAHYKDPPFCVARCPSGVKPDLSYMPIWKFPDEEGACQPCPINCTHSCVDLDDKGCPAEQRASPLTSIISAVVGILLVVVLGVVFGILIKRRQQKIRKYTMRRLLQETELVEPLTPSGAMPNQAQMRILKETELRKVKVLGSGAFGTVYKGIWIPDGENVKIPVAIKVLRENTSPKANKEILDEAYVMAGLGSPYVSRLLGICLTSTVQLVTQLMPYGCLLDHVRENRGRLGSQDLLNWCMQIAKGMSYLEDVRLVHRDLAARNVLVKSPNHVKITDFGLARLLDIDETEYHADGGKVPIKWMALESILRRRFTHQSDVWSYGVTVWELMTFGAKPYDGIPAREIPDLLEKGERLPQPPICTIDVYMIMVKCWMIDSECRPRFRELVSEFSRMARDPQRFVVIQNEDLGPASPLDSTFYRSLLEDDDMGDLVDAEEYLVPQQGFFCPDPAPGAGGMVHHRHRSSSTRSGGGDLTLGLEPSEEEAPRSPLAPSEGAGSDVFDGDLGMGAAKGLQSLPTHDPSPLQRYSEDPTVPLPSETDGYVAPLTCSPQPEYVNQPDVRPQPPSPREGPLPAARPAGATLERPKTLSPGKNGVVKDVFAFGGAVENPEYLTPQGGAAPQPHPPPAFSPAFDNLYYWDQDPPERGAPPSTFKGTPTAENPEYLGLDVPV
For test [12], the target named is Receptor tyrosine-protein kinase erbB-2 (Homo sapiens, UniProt P04626, D769Y). The experiment in a line: Inhibition of HER2 D769Y mutant (unknown origin) incubated for 120 mins in presence of 33P-ATP by P81 ion exchange cellulose chromatography.
For test [13], the target named is T1, Receptor tyrosine-protein kinase erbB-2. Nature of the test: Inhibition of wild type human GST-tagged HER2 (676 to end residues) expressed in baculovirus infected Sf9 cells incubated for 30 mins in presence of ATP by HTRF analysis.
Test [14] concerns the target Epidermal growth factor receptor (Homo sapiens, UniProt P00533). Nature of the test: Inhibition of EGFR (unknown origin).

Epidermal growth factor receptor, sequence (P00533 whole entry): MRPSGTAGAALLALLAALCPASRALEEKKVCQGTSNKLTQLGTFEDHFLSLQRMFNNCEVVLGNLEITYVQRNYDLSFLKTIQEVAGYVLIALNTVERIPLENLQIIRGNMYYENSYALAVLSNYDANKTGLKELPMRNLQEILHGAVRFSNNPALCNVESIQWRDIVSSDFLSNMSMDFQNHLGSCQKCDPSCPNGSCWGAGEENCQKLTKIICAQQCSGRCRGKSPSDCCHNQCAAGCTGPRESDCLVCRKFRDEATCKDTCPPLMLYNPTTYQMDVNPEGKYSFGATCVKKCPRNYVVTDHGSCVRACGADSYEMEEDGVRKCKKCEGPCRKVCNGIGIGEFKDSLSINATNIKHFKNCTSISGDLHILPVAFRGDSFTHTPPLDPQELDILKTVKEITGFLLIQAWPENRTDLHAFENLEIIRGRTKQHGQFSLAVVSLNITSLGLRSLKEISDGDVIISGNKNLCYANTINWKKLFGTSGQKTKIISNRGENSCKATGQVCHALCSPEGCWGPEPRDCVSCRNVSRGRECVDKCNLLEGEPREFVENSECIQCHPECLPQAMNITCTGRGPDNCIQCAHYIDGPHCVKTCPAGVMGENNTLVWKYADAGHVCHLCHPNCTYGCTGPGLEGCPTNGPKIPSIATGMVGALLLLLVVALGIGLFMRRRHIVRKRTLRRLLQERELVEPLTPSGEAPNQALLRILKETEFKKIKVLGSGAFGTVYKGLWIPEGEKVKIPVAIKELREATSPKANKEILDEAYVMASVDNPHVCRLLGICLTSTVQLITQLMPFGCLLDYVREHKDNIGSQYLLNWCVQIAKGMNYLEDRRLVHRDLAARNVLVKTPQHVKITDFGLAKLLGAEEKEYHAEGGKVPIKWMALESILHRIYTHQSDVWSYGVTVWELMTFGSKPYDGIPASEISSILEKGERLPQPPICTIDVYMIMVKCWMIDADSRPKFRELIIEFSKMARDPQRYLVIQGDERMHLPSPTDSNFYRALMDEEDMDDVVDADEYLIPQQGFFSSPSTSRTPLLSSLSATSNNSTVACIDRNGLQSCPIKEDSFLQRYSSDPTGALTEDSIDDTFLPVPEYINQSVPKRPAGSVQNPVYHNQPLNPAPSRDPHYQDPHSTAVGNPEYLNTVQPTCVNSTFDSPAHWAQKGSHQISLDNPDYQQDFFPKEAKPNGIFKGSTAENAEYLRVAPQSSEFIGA

With `CCOc1cc2ncc(C#N)c(Nc3ccc(OCc4ccccn4)c(Cl)c3)c2cc1NC(=O)/C=C/CN(C)C` [NERATINIB], the inhibition in vivo at 20 mg/kg/day came out at 119% with BT-474 [1] and 112% in the test on NCI-N87 [3]. Further, the half-maximal inhibitory concentration (IC50) was found to be 406 nM in the test on MDA-MB-468; 694 nM in the test on COLO-678; 1730 nM in test [2]; 38.1 nM in the test with NUGC-4; 788 nM with ES-2; 1290 nM with MFE-280. The IC50 in the test on SK-BR-3 is 10.3 nM; in the test with NCI-N87 [4], 0.64 nM; in the test on BT-474 [5], 2.06 nM; with NCI-H441 it was 1280 nM. In addition, the inhibition in vivo at 20 mg/kg in the test with BaF3 [6] amounted to 56%.
With `CCOc1cc2ncc(C#N)c(Nc3ccc(OCc4ccccn4)c(Cl)c3)c2cc1NC(=O)/C=C/[C@H]1CCCN1C` [PYROTINIB], the inhibition in vivo at 20 mg/kg/day amounted to 118% in the test on BT-474 [1] and 113% with NCI-N87 [3]. For the same compound, the half-inhibitory concentration (IC50) in the test with MDA-MB-468 turned out to be 659 nM; in test [7], 2.4 nM; in the test on COLO-678 it was 1840 nM; with BaF3 [8], 15 nM; in test [9] it was 6.65 nM; in test [10] it was 4.43 nM. In addition, the 50% inhibitory concentration (IC50) in test [2] turned out to be 1690 nM; in the test on NUGC-4, 60.8 nM; with ES-2, 778 nM; in the test on MFE-280, 1560 nM; in the test on SK-BR-3 it was 14 nM; in the test with NCI-N87 [4], 0.85 nM. In addition, the concentration for half-maximal inhibition (IC50) in [11] is 3.91 nM; in [12] it was 57.4 nM; in the test with BT-474 [5], 3.97 nM; in test [13] it was 9.07 nM; in the test on NCI-H441, 1890 nM. The inhibition in vivo at 20 mg/kg in the test with BaF3 [6] stood at 55%.
For the compound `Cc1cc(Nc2ncnc3ccc(NC4=NC(C)(C)CO4)cc23)ccc1Oc1ccn2ncnc2c1` [TUCATINIB], the values for the IC50 in [14] and in [10] were 449 nM and 6.9 nM, respectively.
